Experimental data: ChEMBL document CHEMBL5465560, “Selectivity Literature for EUbOPEN Chemogenomic Library” (2024)
Each block holds one compound with its values, some of them ahead of it.

Experiments:
[1] = system: Epidermal growth factor receptor (Homo sapiens), P00533 [UNDEFINED MUTATION]; assay: Selectivity interaction (KinomeScan (DiscoverX)) EUB0001049a EGFR; settings: at 1 µM
[2] = biological target: Mast/stem cell growth factor receptor Kit (Homo sapiens, UniProt P10721); assay: Selectivity interaction (KinomeScan (DiscoverX)) EUB0001049a KIT; settings: at 1 µM
[3] = biological target: Cyclin-dependent kinase 17 (Homo sapiens) (UniProt Q00537); assay: Selectivity interaction (ActivX KiNativ screen (kinase selectivity in THP-1 cell lysates)) EUB0000639a CDK17; assay type: subcellular; settings: lysate, at 0.01 µM
[4] = biological target: Serine/threonine-protein kinase PAK 6 (Homo sapiens) (UniProt Q9NQU5); assay: Selectivity interaction (KinomeScan (DiscoverX)) EUB0000595a PAK6; settings: at 10 µM
[5] = biological target: T1, Serine/threonine-protein kinase TAO1 (Homo sapiens) (UniProt Q7L7X3); assay: Selectivity interaction (KinomeScan (DiscoverX)) EUB0000595a TAOK1; settings: at 10 µM
T1 sequence (whole entry): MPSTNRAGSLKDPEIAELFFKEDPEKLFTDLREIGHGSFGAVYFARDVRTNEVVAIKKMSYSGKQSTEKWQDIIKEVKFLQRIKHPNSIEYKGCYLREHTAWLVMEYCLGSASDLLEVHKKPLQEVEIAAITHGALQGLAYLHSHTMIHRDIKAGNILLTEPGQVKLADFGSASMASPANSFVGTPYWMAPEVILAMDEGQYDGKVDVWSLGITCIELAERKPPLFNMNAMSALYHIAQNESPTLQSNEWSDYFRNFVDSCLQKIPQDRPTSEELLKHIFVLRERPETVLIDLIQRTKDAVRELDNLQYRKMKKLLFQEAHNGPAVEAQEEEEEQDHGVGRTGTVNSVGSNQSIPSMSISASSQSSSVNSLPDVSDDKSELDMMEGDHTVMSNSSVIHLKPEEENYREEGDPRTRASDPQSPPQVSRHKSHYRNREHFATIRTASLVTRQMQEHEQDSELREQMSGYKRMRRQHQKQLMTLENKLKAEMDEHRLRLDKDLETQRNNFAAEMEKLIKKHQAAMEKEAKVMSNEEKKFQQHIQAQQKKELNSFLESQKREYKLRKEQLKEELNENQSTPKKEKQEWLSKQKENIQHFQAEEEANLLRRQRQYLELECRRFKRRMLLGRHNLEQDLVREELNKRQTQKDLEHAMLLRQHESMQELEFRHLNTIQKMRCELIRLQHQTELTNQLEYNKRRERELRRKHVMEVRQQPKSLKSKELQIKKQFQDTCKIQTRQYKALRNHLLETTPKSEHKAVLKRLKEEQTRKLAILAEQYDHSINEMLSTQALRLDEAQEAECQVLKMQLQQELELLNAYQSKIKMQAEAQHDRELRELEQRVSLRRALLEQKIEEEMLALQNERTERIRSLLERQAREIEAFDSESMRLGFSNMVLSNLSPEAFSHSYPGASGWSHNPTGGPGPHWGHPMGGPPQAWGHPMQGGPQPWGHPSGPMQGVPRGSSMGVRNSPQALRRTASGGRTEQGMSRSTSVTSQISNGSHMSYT

[6] = biological target: T2, Serine/threonine-protein kinase Nek9 (Homo sapiens) (UniProt Q8TD19); assay: Selectivity interaction (KinomeScan (DiscoverX)) EUB0001079a NEK9; settings: at 1 µM
T2 sequence (whole entry): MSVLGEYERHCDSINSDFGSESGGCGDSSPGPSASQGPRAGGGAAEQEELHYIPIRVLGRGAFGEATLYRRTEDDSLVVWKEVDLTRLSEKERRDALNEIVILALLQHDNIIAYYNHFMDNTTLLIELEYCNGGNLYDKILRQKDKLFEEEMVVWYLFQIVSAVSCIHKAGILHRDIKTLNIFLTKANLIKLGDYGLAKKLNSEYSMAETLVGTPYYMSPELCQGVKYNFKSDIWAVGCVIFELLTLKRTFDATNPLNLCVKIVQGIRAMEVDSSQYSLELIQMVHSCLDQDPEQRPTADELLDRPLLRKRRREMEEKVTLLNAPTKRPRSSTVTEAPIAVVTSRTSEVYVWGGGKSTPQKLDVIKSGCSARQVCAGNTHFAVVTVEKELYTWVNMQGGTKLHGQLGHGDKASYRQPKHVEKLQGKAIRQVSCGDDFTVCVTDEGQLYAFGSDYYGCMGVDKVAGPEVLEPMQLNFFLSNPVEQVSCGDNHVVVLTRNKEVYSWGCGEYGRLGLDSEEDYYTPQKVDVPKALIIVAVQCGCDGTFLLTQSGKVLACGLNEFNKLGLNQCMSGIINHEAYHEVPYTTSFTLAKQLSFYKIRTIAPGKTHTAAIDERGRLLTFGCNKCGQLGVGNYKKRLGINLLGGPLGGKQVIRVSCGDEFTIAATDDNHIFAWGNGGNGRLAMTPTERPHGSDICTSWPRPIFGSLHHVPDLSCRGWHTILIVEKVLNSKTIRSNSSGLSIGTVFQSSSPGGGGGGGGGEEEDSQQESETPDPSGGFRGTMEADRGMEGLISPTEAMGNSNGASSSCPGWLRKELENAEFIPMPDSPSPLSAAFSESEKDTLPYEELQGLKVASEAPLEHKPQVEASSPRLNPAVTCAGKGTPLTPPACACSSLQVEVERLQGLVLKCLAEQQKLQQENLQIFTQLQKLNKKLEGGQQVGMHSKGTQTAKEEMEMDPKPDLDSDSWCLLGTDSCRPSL

[7] = biological target: T3, Rhodopsin kinase GRK1 (Homo sapiens) (UniProt Q15835); assay: Selectivity interaction (KinomeScan (DiscoverX)) EUB0000092b GRK1; settings: at 10 µM
T3 sequence (whole entry): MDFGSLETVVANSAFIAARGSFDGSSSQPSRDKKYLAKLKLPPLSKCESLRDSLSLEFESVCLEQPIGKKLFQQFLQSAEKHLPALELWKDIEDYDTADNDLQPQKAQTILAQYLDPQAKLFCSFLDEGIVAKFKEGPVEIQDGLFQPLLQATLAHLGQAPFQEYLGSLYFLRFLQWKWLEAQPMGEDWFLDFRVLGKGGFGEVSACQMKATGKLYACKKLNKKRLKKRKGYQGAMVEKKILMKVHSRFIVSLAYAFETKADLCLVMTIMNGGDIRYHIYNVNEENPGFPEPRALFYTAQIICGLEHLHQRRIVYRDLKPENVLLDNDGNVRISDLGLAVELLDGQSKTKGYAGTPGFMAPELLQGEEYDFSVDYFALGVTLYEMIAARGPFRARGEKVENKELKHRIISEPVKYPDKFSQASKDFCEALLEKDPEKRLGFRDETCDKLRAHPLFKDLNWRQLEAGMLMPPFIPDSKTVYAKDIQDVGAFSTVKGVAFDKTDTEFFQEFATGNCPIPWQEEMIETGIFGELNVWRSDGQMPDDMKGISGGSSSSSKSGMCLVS

[8] = system: Tyrosine-protein kinase ABL1 (Homo sapiens), P00519 [G250E]; assay: (§1) Selectivity interaction (SelectScreen profiling (Invitrogen)) EUB0000607a ABL1; settings: at 2 µM
[9] = system: Tyrosine-protein kinase ABL1 (Homo sapiens), P00519 [E255K]; assay: as §1; settings: at 2 µM

Chain of Mast/stem cell growth factor receptor Kit (P10721 whole entry): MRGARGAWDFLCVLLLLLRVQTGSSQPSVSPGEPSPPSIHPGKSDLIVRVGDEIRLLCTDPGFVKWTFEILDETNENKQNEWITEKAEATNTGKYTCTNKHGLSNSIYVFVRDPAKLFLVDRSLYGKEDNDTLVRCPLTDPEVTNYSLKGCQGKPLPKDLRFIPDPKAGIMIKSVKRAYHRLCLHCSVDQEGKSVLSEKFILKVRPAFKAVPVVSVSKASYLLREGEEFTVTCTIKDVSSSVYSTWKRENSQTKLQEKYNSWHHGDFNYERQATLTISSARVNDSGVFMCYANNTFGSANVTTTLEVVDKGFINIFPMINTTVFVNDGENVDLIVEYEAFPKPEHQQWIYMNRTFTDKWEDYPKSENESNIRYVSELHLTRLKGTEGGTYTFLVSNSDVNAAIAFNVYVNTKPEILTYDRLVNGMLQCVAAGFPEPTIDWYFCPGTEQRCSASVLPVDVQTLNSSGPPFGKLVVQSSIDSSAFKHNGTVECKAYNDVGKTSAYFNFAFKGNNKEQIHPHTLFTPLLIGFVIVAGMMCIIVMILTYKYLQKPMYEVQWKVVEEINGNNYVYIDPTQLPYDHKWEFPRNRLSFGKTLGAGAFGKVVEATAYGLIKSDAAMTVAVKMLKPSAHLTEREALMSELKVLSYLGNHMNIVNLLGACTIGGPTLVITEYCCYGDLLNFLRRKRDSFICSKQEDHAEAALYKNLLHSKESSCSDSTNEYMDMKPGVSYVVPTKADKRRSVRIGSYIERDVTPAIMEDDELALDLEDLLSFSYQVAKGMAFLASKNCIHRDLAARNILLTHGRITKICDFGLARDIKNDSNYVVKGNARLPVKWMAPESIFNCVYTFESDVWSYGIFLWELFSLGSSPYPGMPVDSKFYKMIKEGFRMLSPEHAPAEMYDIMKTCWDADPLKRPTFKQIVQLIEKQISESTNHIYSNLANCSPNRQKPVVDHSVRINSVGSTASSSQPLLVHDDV
Chain of Cyclin-dependent kinase 17 (Homo sapiens) (Q00537 whole entry, looked up): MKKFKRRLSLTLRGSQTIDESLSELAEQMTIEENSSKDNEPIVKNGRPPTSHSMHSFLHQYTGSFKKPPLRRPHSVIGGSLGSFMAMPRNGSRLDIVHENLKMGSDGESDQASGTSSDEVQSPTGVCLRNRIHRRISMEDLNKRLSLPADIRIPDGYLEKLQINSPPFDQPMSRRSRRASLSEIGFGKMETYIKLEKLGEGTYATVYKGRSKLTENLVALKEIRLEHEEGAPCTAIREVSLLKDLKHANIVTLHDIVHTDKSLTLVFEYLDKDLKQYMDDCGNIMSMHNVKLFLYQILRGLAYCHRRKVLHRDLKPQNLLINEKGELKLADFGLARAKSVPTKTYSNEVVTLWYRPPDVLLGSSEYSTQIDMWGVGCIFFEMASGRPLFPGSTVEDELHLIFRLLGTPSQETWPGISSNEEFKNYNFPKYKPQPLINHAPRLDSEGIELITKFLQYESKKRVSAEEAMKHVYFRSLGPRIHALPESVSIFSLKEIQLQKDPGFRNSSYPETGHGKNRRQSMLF
Chain of Serine/threonine-protein kinase PAK 6 (Homo sapiens) (Q9NQU5 whole entry, looked up): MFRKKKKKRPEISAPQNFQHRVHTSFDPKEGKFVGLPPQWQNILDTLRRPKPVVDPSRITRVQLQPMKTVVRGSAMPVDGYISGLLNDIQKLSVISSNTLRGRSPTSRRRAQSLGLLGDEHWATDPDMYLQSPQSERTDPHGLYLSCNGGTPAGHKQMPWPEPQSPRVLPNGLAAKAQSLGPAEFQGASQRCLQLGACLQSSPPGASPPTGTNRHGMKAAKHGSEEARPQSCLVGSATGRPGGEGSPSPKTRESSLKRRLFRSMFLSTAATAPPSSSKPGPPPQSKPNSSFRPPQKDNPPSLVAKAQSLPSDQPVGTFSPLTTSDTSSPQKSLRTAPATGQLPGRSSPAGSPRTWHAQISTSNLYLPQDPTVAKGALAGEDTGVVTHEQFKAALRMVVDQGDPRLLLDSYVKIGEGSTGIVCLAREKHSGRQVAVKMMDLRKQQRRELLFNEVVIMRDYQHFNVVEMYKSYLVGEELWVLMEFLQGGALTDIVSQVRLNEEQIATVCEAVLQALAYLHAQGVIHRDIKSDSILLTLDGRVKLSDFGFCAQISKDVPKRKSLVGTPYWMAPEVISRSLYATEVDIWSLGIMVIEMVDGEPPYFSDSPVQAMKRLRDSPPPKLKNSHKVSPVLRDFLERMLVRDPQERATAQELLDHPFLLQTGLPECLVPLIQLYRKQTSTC
Chain of Epidermal growth factor receptor (Homo sapiens), P00533 [UNDEFINED MUTATION] (P00533 whole entry, looked up, change not shown): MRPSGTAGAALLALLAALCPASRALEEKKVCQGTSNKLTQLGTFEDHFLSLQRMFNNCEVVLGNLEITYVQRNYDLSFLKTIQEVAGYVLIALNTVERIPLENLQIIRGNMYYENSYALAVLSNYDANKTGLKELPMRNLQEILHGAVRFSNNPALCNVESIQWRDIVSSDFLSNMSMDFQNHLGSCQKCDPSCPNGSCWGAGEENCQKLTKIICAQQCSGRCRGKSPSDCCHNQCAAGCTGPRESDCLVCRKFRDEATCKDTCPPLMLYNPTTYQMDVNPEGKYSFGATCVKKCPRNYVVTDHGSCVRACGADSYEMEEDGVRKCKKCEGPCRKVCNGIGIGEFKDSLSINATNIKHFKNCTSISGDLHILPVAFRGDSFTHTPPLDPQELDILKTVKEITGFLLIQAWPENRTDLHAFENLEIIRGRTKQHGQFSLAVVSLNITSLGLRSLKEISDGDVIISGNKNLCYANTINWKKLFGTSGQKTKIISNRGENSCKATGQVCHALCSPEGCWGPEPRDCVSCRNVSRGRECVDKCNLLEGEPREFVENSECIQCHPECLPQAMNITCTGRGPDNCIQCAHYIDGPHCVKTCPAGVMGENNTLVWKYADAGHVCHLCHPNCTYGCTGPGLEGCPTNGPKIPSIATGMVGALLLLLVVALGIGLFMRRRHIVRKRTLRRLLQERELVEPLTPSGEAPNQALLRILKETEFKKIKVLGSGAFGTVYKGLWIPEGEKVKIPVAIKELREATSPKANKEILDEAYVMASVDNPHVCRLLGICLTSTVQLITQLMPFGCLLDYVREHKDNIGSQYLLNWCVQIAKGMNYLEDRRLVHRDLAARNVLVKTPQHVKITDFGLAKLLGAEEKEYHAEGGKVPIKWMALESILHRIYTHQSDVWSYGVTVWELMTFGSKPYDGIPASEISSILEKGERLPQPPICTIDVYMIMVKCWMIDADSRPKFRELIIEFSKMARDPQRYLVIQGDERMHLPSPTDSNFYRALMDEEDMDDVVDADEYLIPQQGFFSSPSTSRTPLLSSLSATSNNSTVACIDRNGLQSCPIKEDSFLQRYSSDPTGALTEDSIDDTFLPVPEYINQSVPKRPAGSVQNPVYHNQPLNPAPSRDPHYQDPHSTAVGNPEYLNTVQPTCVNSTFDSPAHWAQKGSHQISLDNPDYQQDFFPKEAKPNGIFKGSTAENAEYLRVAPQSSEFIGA

Compound: COc1cc(Nc2nc(C)cc(-c3cnn4nc(OC)ccc34)n2)cc(C(F)(F)F)c1
% of control [1]: 77% | % of control [2]: 75%

% of inhibition [3]: 16.3%
Compound: CC[C@@H]1[C@H](F)C(=O)N[C@@H]1COc1nccc2cc(C(N)=O)c(OC)cc12 [ZIMLOVISERTIB]

Compound: COCC(=O)NC/C=C/c1ccc2ncnc(Nc3ccc(Oc4ccc(C)nc4)c(C)c3)c2c1 [CP-724714]
% of control [4]: 87% | % of control [5]: 94%

Compound: Nc1cnc(N2CCc3cc(S(=O)(=O)Nc4c(F)cc(Cl)cc4F)cc(N4CCCC4=O)c32)nc1 [TP-020n]
% of control [6]: 98%

Compound: CCC(=O)N1CCN(c2ccc(-n3c(=O)ccc4cnc5ccc(-c6cnc7ccccc7c6)cc5c43)cc2C(F)(F)F)CC1
% of control [7]: 99%

Compound: CNC(=O)Nc1ccc(-c2nc(N3CC4CCC(C3)O4)c3cnn(C4CCC5(CC4)OCCO5)c3n2)cc1
% of inhibition [8]: 3% | % of inhibition [9]: 5%
